# Measurements as given in ChEMBL document CHEMBL3600291, “Synthesis and carbonic anhydrase I, II, IX and XII inhibitory activity of sulfamates incorporating piperazinyl-ureido moieties” (Bioorg Med Chem, 2015).
# Experiments:
# [1] = target: Carbonic anhydrase 9 (Homo sapiens, UniProt Q16790); assay: Inhibition of human recombinant carbonic anhydrase-9 pre-incubated for 15 mins by stopped-flow CO2 hydration assay
# [2] = target: Carbonic anhydrase 2 (Homo sapiens, UniProt P00918); assay: Inhibition of human recombinant carbonic anhydrase-2 pre-incubated for 15 mins by stopped-flow CO2 hydration assay
# [3] = target: Carbonic anhydrase 1 (Homo sapiens, UniProt P00915); assay: Inhibition of human recombinant carbonic anhydrase-1 pre-incubated for 15 mins by stopped-flow CO2 hydration assay
# Chain of Carbonic anhydrase 1 (P00915 whole entry): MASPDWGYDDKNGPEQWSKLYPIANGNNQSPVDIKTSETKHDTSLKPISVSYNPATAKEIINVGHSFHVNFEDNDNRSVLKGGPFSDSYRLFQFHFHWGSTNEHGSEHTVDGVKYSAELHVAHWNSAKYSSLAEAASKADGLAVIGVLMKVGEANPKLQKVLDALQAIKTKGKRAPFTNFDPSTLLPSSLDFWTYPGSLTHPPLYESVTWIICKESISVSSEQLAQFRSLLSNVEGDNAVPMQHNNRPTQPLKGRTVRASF
# [4] = target: Carbonic anhydrase 12 (Homo sapiens, UniProt O43570); assay: Inhibition of human recombinant carbonic anhydrase-12 pre-incubated for 15 mins by stopped-flow CO2 hydration assay
# Chain of Carbonic anhydrase 12 (O43570 whole entry): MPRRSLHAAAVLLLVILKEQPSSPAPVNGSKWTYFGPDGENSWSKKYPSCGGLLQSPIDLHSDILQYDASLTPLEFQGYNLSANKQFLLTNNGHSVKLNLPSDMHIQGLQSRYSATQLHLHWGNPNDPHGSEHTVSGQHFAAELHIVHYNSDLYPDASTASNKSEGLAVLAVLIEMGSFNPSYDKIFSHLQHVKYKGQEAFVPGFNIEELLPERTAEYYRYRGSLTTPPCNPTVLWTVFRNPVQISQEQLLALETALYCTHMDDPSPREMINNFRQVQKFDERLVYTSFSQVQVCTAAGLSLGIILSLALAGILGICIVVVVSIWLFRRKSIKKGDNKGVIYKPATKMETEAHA
SMILES,Ki [1],Ki [2],Ki [3],Ki [4]
NS(=O)(=O)Oc1ccc(NC(=O)N2CCN(Cc3ccccc3)CC2)cc1,10.5 nM,11.7 nM,317 nM,1 nM
NS(=O)(=O)Oc1ccc(NC(=O)N2CCN(c3ccccc3)CC2)cc1,11.1 nM,71.9 nM,897 nM,1 nM
NS(=O)(=O)Oc1ccc(NC(=O)N2CCN(c3ccc(F)cc3)CC2)cc1,61.5 nM,18.2 nM,9.4 nM,64.7 nM
NS(=O)(=O)Oc1ccc(NC(=O)N2CCN(c3ccc(Cl)cc3)CC2)cc1,10.4 nM,16.9 nM,581 nM,84.5 nM
Cc1cccc(N2CCN(C(=O)Nc3ccc(OS(N)(=O)=O)cc3)CC2)c1,0.91 nM,15.9 nM,851 nM,35.8 nM
Cc1cccc(N2CCN(C(=O)Nc3ccc(OS(N)(=O)=O)cc3)CC2)c1C,32.3 nM,11.1 nM,63.5 nM,1 nM
COc1cccc(N2CCN(C(=O)Nc3ccc(OS(N)(=O)=O)cc3)CC2)c1,34.1 nM,11.2 nM,88.1 nM,37 nM
COc1ccc(N2CCN(C(=O)Nc3ccc(OS(N)(=O)=O)cc3)CC2)cc1,114 nM,9.1 nM,282 nM,1.1 nM
NS(=O)(=O)Oc1ccc(NC(=O)N2CCN(c3nccc(-c4ccc(Br)cc4)n3)CC2)cc1,114 nM,,,
NS(=O)(=O)Oc1ccc(NC(=O)N2CCN(c3nccc(-c4ccc(C(F)(F)F)cc4)n3)CC2)cc1,24.3 nM,,,
NS(=O)(=O)Oc1ccc(NC(=O)N2CCN(c3nccc(-c4cc5ccccc5o4)n3)CC2)cc1,6.7 nM,1 nM,70.2 nM,1 nM
O=C(Nc1ccc(O)cc1)N1CCN(Cc2ccccc2)CC1,113 nM,,> 10000 nM,
O=C(Nc1ccc(O)cc1)N1CCN(c2ccccc2)CC1,121 nM,,,
O=C(Nc1ccc(O)cc1)N1CCN(c2ccc(F)cc2)CC1,36.9 nM,,,
O=C(Nc1ccc(O)cc1)N1CCN(c2ccc(Cl)cc2)CC1,80.5 nM,,> 10000 nM,
Cc1cccc(N2CCN(C(=O)Nc3ccc(O)cc3)CC2)c1,549 nM,,,
